From patent US8933070B2, “Methods of targeting PTEN mutant diseases and compositions therefor” (University Health Network, priority 2010, dated 2015) come the findings set out here.

Test [1] deals with HCT116 p53 negative cells. As to the method:
(§1) Breast cancer cells were seeded at various concentrations, ranging from 1×10^5 to 2.5×10^5 per well according to cell growth rate, into 6-well plates 24 hours before siRNA and/or compound treatment. Each 10 mM stock solution in 100% DMSO of the compounds was diluted with Opti-MEM I Reduced-Serum Medium (Invitrogen, Canada) and added to the cells to the stated final concentrations. Control cells received 0.001% DMSO alone. Where indicated, 40 nM PTEN siRNAs (siPTEN) (QIAGEN, Canada; sense sequence: 5′-[…]-3′) or 40 nM control siRNA (siCTRL) (QIAGEN, Canada) were transfected into cells using Lipofectamine 2000 according to the manufacturer's protocol (Invitrogen, Canada). Prior to analysis, cells were trypsinized, washed in 1× phosphate-buffered saline (PBS) and centrifuged. […] All samples were read in a FACSCalibur flow cytometer (Becton, Dickinson and Company), and data analyzed using FloJo software (Tree Star, Inc.).
(§2) To explore if PTEN status may be a contributing factor in determining if PLK4 inhibitor treatment induces a cell death response in cancer cells, a test of whether reducing the levels of endogenous PTEN would sensitize HCT116 cells (either p53 wild-type or negative) to PLK4 compound-induced death (FIG. 7) was performed. […] After two days of inhibitor treatment, the percentage of sub-G1 cells was measured by cell cycle analysis.

Test [2] concerns HCT116 p53 wild-type cells. As to the method:
as §1, §2

Another test has as its target T1, human PLK4 (Homo sapiens, UniProt O00444).
T1 construct: amino terminal GST fusion of residues 1-391 of human PLK4; made in house; host or cells: E. coli
T1 sequence (O00444 1-391): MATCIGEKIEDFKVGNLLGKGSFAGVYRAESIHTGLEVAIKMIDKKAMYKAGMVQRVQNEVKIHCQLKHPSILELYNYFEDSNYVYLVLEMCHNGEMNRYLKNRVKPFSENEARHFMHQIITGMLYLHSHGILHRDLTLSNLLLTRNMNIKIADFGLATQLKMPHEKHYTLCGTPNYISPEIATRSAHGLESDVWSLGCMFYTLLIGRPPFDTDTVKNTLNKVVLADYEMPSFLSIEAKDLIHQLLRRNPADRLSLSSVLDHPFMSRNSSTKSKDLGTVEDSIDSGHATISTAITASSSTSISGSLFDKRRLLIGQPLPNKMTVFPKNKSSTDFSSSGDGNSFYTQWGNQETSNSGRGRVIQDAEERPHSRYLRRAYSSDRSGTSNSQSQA
Briefly: PLK4 inhibition assay (indirect ELISA). The class given is biochemical. Here is the method: The protein was purified from clarified cell extracts after induction at 15° C. overnight using glutathione sepharose, gel permeation chromatography, and ion exchange (Resource Q). The resulting protein was dephosphorylated with lambda phosphatase (NEB cat# P0753), and resolved from the phosphatase using gluthione sepharose. The dephosphorylated GST-PLK4 was stored in aliquots at −80° C. until use.
PLK4 activity was measured using an indirect ELISA detection system. […] The colourimetric reaction was allowed to continue for 5 minutes, followed by addition of stop solution (0.5 N sulphuric acid), and quantified by detection at 450 nm with either a monochromatic or filter based plate reader (Molecular Devices M5 or Beckman DTX880, respectively).
Compounds were pre-incubated in the presence of enzyme for 15 minutes prior to addition of ATP and the activity remaining quantified using the above described activity assay. […] The IC50 value was determined using a non-linear 4 point logistic curve fit (XLfit4, IDBS) with the formula; (A+(B/(1+((x/C)^D)))), where A=background value, B=range, C=inflection point, D=curve fit parameter.
On the technique in general: An ELISA detects its analyte on a solid surface through an enzyme-linked reagent.

The test system of test [3] is HCT116 p53^+/+ colon cancer cell line. The test can be described thus: Cell growth inhibition, SRB assay, extended panel. The class given is cell-based. To be noted: Homo sapiens, HCT-116, read-out: GI50 Range HCT116 p53^+/+. As to the method:
(§3) Breast cancer cells (MCF-7, MDA-MB-468 and HCC1954), colon cancer cells (SW620) and lung cancer cells (A549), together with human mammary epithelial primary cells (HMEC) were seeded (1000 to 4000 per 80 μl per well depending on the cell growth rate) into 96-well plates 24 hours before compound overlay. Compounds were prepared as 10 mM stock solutions in 100% DMSO which were diluted with DMEM (Dulbecco's Modified Eagle's Medium) cell growth Medium (Invitrogen, Canada) containing 10% FBS (Fetal Bovine Serum) to concentrations ranging from 50 nM to 250 μM. Aliquots (20 μl) from each concentration were overlaid to 80 μl of the pre-seeded cells in the 96-plates to make final concentrations of 10 nM to 50 μM. The cells were cultured for 5 days before the Sulforhodamine B (SRB) assay was performed to determine the compound's cell growth inhibition activity.
(§4) Sulforhodamine B (Sigma, Canada) is a water-soluble dye that binds to the basic amino acids of cellular proteins. Thus, colorimetric measurement of the bound dye provides an estimate of the total protein mass that is related to the cell number. The cells are fixed in situ by gently aspirating off the culture media and adding 50 μl ice cold 10% Trichloroacetic Acid (TCA) per well and incubated at 4° C. for 30-60 min. The plates are washed with water five times and allowed to air dry for 5 min. Addition of 50 μl 0.4% (w/v) SRB solution in 1% (v/v) acetic acid to each well and incubatation for […] at RT completes the staining reaction. Following staining, plates are washed four times with 1% acetic acid to remove unbound dye and then allowed to air dry for 5 min. The stain is solubilized with 100 μl of 10 mM Tris pH 10.5 per well. Absorbance is read at 570 nm.
(§5) The percentage (%) of relative growth inhibition was calculated by comparing to DMSO-treated only cells (100%). GI50's were determined for compounds with cytotoxic activity. The GI50 was calculated using GraphPad PRISM software (GraphPad Software, Inc., USA).
(§6) In addition to the cell lines tested as described above, selected compounds have been assayed against an extended panel. These include: breast cancer cell lines (T-47D, MDA-MB-231, Hs578T, 8T-474, SKBr-3 and HCC1954), a lung cancer cell line (H358), brain cancer cell lines (A172, Hs683 and SK-N-SH), colon cancer cell lines (Colo 205, HCT-15, HCT116 p53^+/+ and HCT116 p53^−/−), ovarian cancer cell lines (OVCAR-3, SK-OV-3 and SW626), a melanoma cell line (518A2), a prostate cancer cell line (PC-3) and an immortalized breast cell line (184A1). The SRB assay described above was used to assay test compounds against the extended panel (Table 6).

For test [4], the system named is HCT116 p53^−/− colon cancer cell line. The test can be described thus: Cell growth inhibition, SRB assay, extended panel. To be noted: Homo sapiens, HCT-116, read-out: GI50 Range HCT116 p53^−/−. The class given is cell-based. As to the method:
as §3, §4, §5, §6
(The SRB assay estimates cell density from bound dye.)

By IC50 is commonly meant the concentration that gives 50% inhibition.

The structures appear in SMILES notation. Several values for one entry are separate records, joined by “and”; a condition that tells them apart may be missing. Identical values can stand only once.

Turning to `COc1ccc2c(c1)[C@@]1(C[C@@H]1c1ccc3c(-c4ccc(N5CCN(C)CC5)nc4)n[nH]c3c1)C(=O)N2` (racemic) [Compound 2], the “percentage of sub-G1 cells” value in test [1] was 5.4% and 10.3%; in test [2], 7.1% and 15.9%. Besides, the IC50 against human PLK4 is less than 5 µM.
Consider `COc1ccc2c(c1)/C(=C\c1ccc3c(/C=C/c4ccc(N5CCN(C)CC5)nc4)n[nH]c3c1)C(=O)N2` [Compound 3], for which the GI50 in test [3] and in test [4] was less than 5 µM each time.
